Results on one molecule are retold here after US20260199423A1, “COMPOSITIONS COMPRISING AN ONCOLYTIC PEPTIDE AND CHITOSAN” (LYTIX BIOPHARMA AS, priority 2022, published 2026).

In the experiment the test system is B16F1 melanoma cells. As to the kind of experiment: Melanoma mouse model, injection into the tumor. It counts as in vivo, C57BL/6NRj mice. To be noted: 50 μl into the tumor on two consecutive days; groups of 10 mice; FIG. 2. The method, then: The following compositions were prepared as described in Example 1 in aqueous acetic acid/acetate buffer, pH 5.2. The following chitosan was used in this study: chitosan medium molecular weight, 330 kDa, DAA 86% (manufacturer Chitinor, Norway). • 1: LTX-401, 5 mg/ml (free base) • 2: Chitosan, 1.2% (w/w) • 3: LTX-401, 5 mg/ml (free base) and chitosan, 1.2% (w/w) • 4: Control: aqueous acetic acid/acetate buffer
Immunocompetent C57BL/6NRj mice (JanVier Labs, France) were inoculated with B16F1 melanoma cells on day 0 by subcutaneous injection of 5×10^4 tumor cells per mouse/50 μl RPMI-1640 in the skin on the abdomen of the animal. The mice were divided into 4 groups of 10 mice each, and treatment was initiated when the tumors were palpable and reached the desired size of approximately 5 mm in diameter (40-80 mm^3). The respective compositions 1~4 were administered by injection into the tumor (50 μl) on two consecutive days (day 11 and 12 or day 12 and 13 or day 13 and 14, depending on tumor growth). The mice were monitored during the study by measuring the tumors and weighing the animals regularly. The tumor volume was measured using an electronic caliper and expressed as volume V=(L×W×W)/2, where W is the tumor width and L is the tumor length. […]

With `NCCNC(=O)C(CN)(CCCc1ccccc1)CCCc1ccccc1` [LTX-401], the Survival was 60%.
